In patent US20050197350A1, “Novel quinoline, tetrahydroquinazoline, and pyrimidine derivatives and methods of treatment related to the use thereof” (TAISHO PHARMACEUTICAL CO., LTD., priority 2003, published 2005):

Test system: MCH receptors
Assay: MCH receptor activity class (method not given)
Details: not given

| class | Compound |
| --- | --- |
| 1 | Cc1cccc(OCC(=O)N[C@H]2CC[C@@H](Nc3cc(C)c4ccccc4n3)CC2)c1 [Example 2556, 2-(3-methylphenoxy)-N-{cis-4-[(4-methylquinolin-2-yl)amino]cyclohexyl}acetamide] |

Same assay, conditions: MCH receptor activity class 1-3 (percent of control at 10^-7 M or IC50)

| Compound | class |
| --- | --- |
| COC(=O)c1sccc1NC(=S)N[C@H]1CC[C@@H](Nc2cc(N(C)C)c3ccccc3n2)CC1 [compound 2312] | 3 (Class 3 The value of percent of control at 10^−7 M was more than 60% or the value of IC50 was more than 200 nM.) |
| CN(C)c1cc(N[C@H]2CC[C@@H](CNC(=O)Nc3ccc(C#N)cc3)CC2)nc2ccccc12 [compound 2388] | 3 (Class 3 The value of percent of control at 10^−7 M was more than 60% or the value of IC50 was more than 200 nM.) |

Same assay, conditions: MCH receptor; class by percent of control at 10^-7 M or IC50

| Compound | class |
| --- | --- |
| CN(C)c1cc(N[C@H]2CC[C@@H](NC(=O)c3ccc(F)c(Cl)c3)CC2)nc2ccccc12 [compound 73, 3-chloro-N-(cis-4-{[4-(dimethylamino)quinolin-2-yl]amino}cyclohexyl)-4-fluorobenzamide] | 1 (Class 1: The value of percent of control at 10^−7 M was less than 40% or the value of IC50 was less than 50 nM.) |
| CN(C)c1cc(N[C@H]2CC[C@@H](NC(=O)CC3CCCC3)CC2)nc2ccccc12 [compound 75] | 3 (Class 3 The value of percent of control at 10^−7 M was more than 60% or the value of IC50 was more than 200 nM.) |
| CC(=O)c1ccc(NC(=S)N[C@H]2CC[C@@H](Nc3nc4c(c(N(C)C)n3)CCCC4)CC2)cc1 [compound 1926] | 3 (Class 3 The value of percent of control at 10^−7 M was more than 60% or the value of IC50 was more than 200 nM.) |
| COC(=O)c1ccc(NC(=O)N[C@H]2CC[C@@H](Nc3nc4c(c(N(C)C)n3)CCCC4)CC2)cc1 [compound 1908] | 3 (Class 3 The value of percent of control at 10^−7 M was more than 60% or the value of IC50 was more than 200 nM.) |
| CN(C)c1nc(N[C@H]2CC[C@@H](NC(=S)Nc3ccccc3I)CC2)nc2c1CCCC2 [compound 1979] | 3 (Class 3 The value of percent of control at 10^−7 M was more than 60% or the value of IC50 was more than 200 nM.) |
| CN(C)c1cc(N[C@H]2CC[C@@H](CNC(=O)c3ccc(Cl)c(Cl)c3)CC2)nc2ccccc12 [compound 158] | 3 (Class 3 The value of percent of control at 10^−7 M was more than 60% or the value of IC50 was more than 200 nM.) |

Same assay, conditions: activity class 1-3: percent of control at 10^-7 M or IC50

| Compound | class |
| --- | --- |
| CCCCCCCCOC(=O)N[C@H]1CC[C@@H](Nc2cc(N(C)C)c3ccccc3n2)CC1 [compound 1546] | 3 (Class 3 The value of percent of control at 10^−7 M was more than 60% or the value of IC50 was more than 200 nM.) |
| C=C(C)c1cccc(C(C)(C)NC(=O)N[C@H]2CC[C@@H](Nc3nc4c(c(N(C)C)n3)CCCC4)CC2)c1 [compound 1698] | 3 (Class 3 The value of percent of control at 10^−7 M was more than 60% or the value of IC50 was more than 200 nM.) |
| CN(C)c1nc(N[C@H]2CC[C@@H](NC(=O)Oc3cccc(C(F)(F)F)c3)CC2)nc2c1CCCC2 [compound 1582] | 3 (Class 3 The value of percent of control at 10^−7 M was more than 60% or the value of IC50 was more than 200 nM.) |
| Cc1cccc(N(CCC#N)CCN[C@H]2CC[C@@H](Nc3nccc(N(C)C)n3)CC2)c1 [compound 1523] | 3 (Class 3 The value of percent of control at 10^−7 M was more than 60% or the value of IC50 was more than 200 nM.) |

Same assay, conditions: activity class per percent of control at 10^-7 M or IC50

| Compound | class |
| --- | --- |
| CN(C)c1nc(N[C@H]2CC[C@@H](NC(=O)CCCc3ccc([N+](=O)[O-])cc3)CC2)nc2c1CCCC2 [compound 1001] | 1 (Class 1: The value of percent of control at 10^−7 M was less than 40% or the value of IC50 was less than 50 nM.) |

Same assay, conditions: class by percent of control at 10^-7 M or IC50

| Compound | class |
| --- | --- |
| Cc1ccc(C(=O)NC[C@H]2CC[C@@H](Nc3nc4c(c(N(C)C)n3)CCCC4)CC2)cc1F [compound 636] | 3 (Class 3 The value of percent of control at 10^−7 M was more than 60% or the value of IC50 was more than 200 nM.) |
| COc1ccc(NC(=O)N[C@H]2CC[C@@H](Nc3nc4c(c(N(C)C)n3)CCCC4)CC2)cc1 [compound 1831] | 3 (Class 3 The value of percent of control at 10^−7 M was more than 60% or the value of IC50 was more than 200 nM.) |
| CC(C)S(=O)(=O)c1csc(C(=O)N[C@H]2CC[C@@H](Nc3nccc(N(C)C)n3)CC2)c1Cl [compound 319] | 3 (Class 3 The value of percent of control at 10^−7 M was more than 60% or the value of IC50 was more than 200 nM.) |
| Cc1cc(CN[C@H]2CC[C@@H](Nc3nccc(N(C)C)n3)CC2)cc(C)c1O [compound 1223] | 3 (Class 3 The value of percent of control at 10^−7 M was more than 60% or the value of IC50 was more than 200 nM.) |
| CN(C)c1ccnc(N[C@H]2CC[C@@H](CNC(=O)C3C[C@H]3c3ccccc3)CC2)n1 (some centres unmarked) [compound 391] | 3 (Class 3 The value of percent of control at 10^−7 M was more than 60% or the value of IC50 was more than 200 nM.) |
| CN(C)c1cc(N[C@H]2CC[C@@H](CNCCCOc3ccccc3)CC2)nc2ccccc12 [compound 1471] | 3 (Class 3 The value of percent of control at 10^−7 M was more than 60% or the value of IC50 was more than 200 nM.) |
| CN(C)c1ccnc(N[C@H]2CC[C@@H](NC(=S)Nc3ccc(Cl)cc3Cl)CC2)n1 [compound 2259] | 3 (Class 3 The value of percent of control at 10^−7 M was more than 60% or the value of IC50 was more than 200 nM.) |
| CC(Oc1ccccc1)C(=O)NC[C@H]1CC[C@@H](Nc2nccc(N(C)C)n2)CC1 (relative stereo) [compound 394] | 3 (Class 3 The value of percent of control at 10^−7 M was more than 60% or the value of IC50 was more than 200 nM.) |
| Cc1c(NC(=O)N[C@H]2CC[C@@H](Nc3nccc(N(C)C)n3)CC2)cccc1[N+](=O)[O-] [compound 2201] | 3 (Class 3 The value of percent of control at 10^−7 M was more than 60% or the value of IC50 was more than 200 nM.) |
| COc1ccc(CNC[C@H]2CC[C@@H](Nc3nccc(N(C)C)n3)CC2)cc1C [compound 1311] | 2 (Class 2: The value of percent of control at 10^−7 M was from 40% to 60% or the value of IC′50 was from 50 nM to 200 nM.) |
| COc1ccc2ccccc2c1CNC[C@H]1CC[C@@H](Nc2nccc(N(C)C)n2)CC1 [compound 1249] | 1 (Class 1: The value of percent of control at 10^−7 M was less than 40% or the value of IC50 was less than 50 nM.) |
| COc1ccc(CNC[C@H]2CC[C@@H](Nc3nccc(N(C)C)n3)CC2)c2ccccc12 [compound 1247] | 1 (Class 1: The value of percent of control at 10^−7 M was less than 40% or the value of IC50 was less than 50 nM.) |
| COc1ccc(NC(=S)N[C@H]2CC[C@@H](Nc3nc4c(c(N(C)C)n3)CCCC4)CC2)cc1OC [compound 1746, N-(3,4-dimethoxyphenyl)-N′-(cis-4-{[4-(dimethylamino)-5,6,7,8-tetrahydroquinazolin-2-yl]amino}cyclohexyl)thiourea] | 1 (Class 1: The value of percent of control at 10^−7 M was less than 40% or the value of IC50 was less than 50 nM.) |
| CN(C)c1ccnc(N[C@H]2CC[C@@H](CNC(=O)c3ccc4nonc4c3)CC2)n1 [compound 368] | 3 (Class 3 The value of percent of control at 10^−7 M was more than 60% or the value of IC50 was more than 200 nM.) |
| CN(C)c1nc(N[C@H]2CC[C@@H](NCC(c3ccc(Cl)cc3)c3ccc(Cl)cc3)CC2)nc2c1CCCC2 [compound 1495] | 3 (Class 3 The value of percent of control at 10^−7 M was more than 60% or the value of IC50 was more than 200 nM.) |
| COc1ccc(NC(=O)N[C@H]2CC[C@@H](Nc3cc(N(C)C)c4ccccc4n3)CC2)cc1OC [compound 2150] | 3 (Class 3 The value of percent of control at 10^−7 M was more than 60% or the value of IC50 was more than 200 nM.) |
| CN(C)c1ccnc(N[C@H]2CC[C@@H](NC(=O)c3cc(C(C)(C)C)c(O)c(C(C)(C)C)c3)CC2)n1 [compound 924] | 1 (Class 1: The value of percent of control at 10^−7 M was less than 40% or the value of IC50 was less than 50 nM.) |
| Cc1ccc(-c2ccc(C(=O)N[C@H]3CC[C@@H](Nc4nc5c(c(N(C)C)n4)CCCC5)CC3)o2)c([N+](=O)[O-])c1 [compound 963] | 2 (Class 2: The value of percent of control at 10^−7 M was from 40% to 60% or the value of IC′50 was from 50 nM to 200 nM.) |
| Cc1ccc(NC(=S)N[C@H]2CC[C@@H](Nc3cc(N(C)C)c4ccccc4n3)CC2)c(C)c1 [compound 2276] | 3 (Class 3 The value of percent of control at 10^−7 M was more than 60% or the value of IC50 was more than 200 nM.) |

Same assay, conditions: class by percent of control at 10^−7 M or IC50

| Compound | class |
| --- | --- |
| Cc1cnc(N[C@H]2CC[C@@H](NC(=O)N(C)c3ccc(F)cc3)CC2)nc1N(C)C [compound 3026, N′-(cis-4-{[4-(dimethylamino)-5-methylpyrimidin-2-yl]amino}cyclohexyl)-N-(4-fluorophenyl)-N-methylurea] | 1 (Class 1: The value of percent of control at 10^−7 M was less than 40% or the value of IC50 was less than 50 nM.) |
| COc1cccc(OCC(=O)N[C@H]2CC[C@@H](Nc3ncc(C)c(N(C)C)n3)CC2)c1 [compound 2877, N-(cis-4-{[4-(dimethylamino)-5-methylpyrimidin-2-yl]amino}cyclohexyl)-2-(3-methoxyphenoxy)acetamide] | 1 (Class 1: The value of percent of control at 10^−7 M was less than 40% or the value of IC50 was less than 50 nM.) |
| COc1cccc(C(=O)N[C@H]2CC[C@@H](Nc3ncc(C)c(N(C)C)n3)CC2)c1 [compound 2938, N-(cis-4-{[4-(dimethylamino)-5-methylpyrimidin-2-yl]amino}cyclohexyl)-3-methoxybenzamide] | 1 (Class 1: The value of percent of control at 10^−7 M was less than 40% or the value of IC50 was less than 50 nM.) |
| Cc1ccc(C(=O)NC[C@H]2CC[C@@H](Nc3nc(C)cc(N(C)C)n3)CC2)cc1 [compound 2752] | 3 (Class 3 The value of percent of control at 10^−7 M was more than 60% or the value of IC50 was more than 200 nM.) |
| COc1cccc(NC(=O)[C@H]2CC[C@@H](Nc3ncc(C)c(N(C)C)n3)CC2)c1 [compound 2787, cis-4-{[4-(dimethylamino)-5-methylpyrimidin-2-yl]amino}-N-(3-methoxyphenyl)cyclohexanecarboxamide] | 1 (Class 1: The value of percent of control at 10^−7 M was less than 40% or the value of IC50 was less than 50 nM.) |
